{"source": "patent US20170202932A1", "about": "“METHODS FOR INHIBITING NEURON APOPTOSIS AND NECROSIS” (NEWSOUTH INNOVATIONS PTY LIMITED, priority 2012, published 2017)", "molecular_target": "T1, recombinant mouse TRPC3b channels (Mus musculus, UniProt Q9QZC1, R524G)", "T1 construct": "Full length mouse TRPC3 transcripts were obtained by PCR; expressed in transfected cells; host or cells: HEK293 cells, stably transfected (pIRES-DsRed2 vector)", "T1 sequence (Q9QZC1 75-910 R524G limits assumed)": "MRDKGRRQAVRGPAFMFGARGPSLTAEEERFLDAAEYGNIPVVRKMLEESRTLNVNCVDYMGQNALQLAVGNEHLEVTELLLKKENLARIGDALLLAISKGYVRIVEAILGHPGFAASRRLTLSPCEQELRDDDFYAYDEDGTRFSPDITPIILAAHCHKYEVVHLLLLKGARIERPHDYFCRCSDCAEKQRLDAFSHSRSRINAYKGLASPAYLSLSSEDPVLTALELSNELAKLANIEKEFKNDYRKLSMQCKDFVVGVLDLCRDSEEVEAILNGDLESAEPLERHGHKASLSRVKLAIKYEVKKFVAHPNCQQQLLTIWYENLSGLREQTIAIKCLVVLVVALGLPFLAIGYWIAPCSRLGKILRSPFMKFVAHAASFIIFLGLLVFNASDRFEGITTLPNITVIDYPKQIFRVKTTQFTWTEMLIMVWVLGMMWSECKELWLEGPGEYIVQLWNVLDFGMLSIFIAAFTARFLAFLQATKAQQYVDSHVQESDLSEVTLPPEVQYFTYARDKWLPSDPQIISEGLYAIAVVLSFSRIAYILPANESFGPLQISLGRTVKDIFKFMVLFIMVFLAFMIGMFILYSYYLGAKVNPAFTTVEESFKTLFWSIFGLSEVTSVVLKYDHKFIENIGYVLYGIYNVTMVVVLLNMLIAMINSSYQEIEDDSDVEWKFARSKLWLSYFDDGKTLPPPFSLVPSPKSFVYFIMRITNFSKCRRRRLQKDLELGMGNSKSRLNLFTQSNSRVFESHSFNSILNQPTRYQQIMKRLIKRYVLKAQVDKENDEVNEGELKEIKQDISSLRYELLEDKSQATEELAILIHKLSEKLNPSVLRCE", "experiment": "Indo-1 ratiometric Ca2+ imaging of CCh-activated Ca2+ entry, HEK293 cells expressing TRPC3b", "type": "cell-based", "details": "genistein 200 μM pre-incubation, n=5, without genistein 182.7±20.8 nM", "procedure": "The TRPC3-mediated Ca^2+ entry through two distinct activation pathways was assessed by microfluorometric Ca^2+ imaging: i) Ca^2+ entry via the M3 receptor-PLCB-DAG pathway endogenous to HEK293 cells, using Indo-1 as a Ca^2+ indicator; and ii) Ca^2+ entry via mGluR1-PLCB-DAG through co-expression of the mGluR1, using Fluo-4 as a Ca^2+ indicator.\nCells were grown in DMEM media on 18 mm circular coverslips coated with poly-D-lysine (25 μg/ml) and collagen (25 μg/ml) at 1:1 ratio. The cells were washed with HPSS. The coverslips were then incubated with HPSS and 0.1% pluronic acid, along with either 1 μM Indo-1AM or Fluo-4AM Ca^2+ indicator (Invitrogen, U.S.A.) for an hour prior to the experiment. The cells were then placed into HPSS with 5 μM GdCl3 to block endogenous Ca^2+ entry (added to all superfusions). The M3 AChR-mediated TRPC3 activation was achieved by bath application of carbachol. The mGluR1-mediated TRPC3 activation was achieved by bath application of DHPG.\nFor Indo-1 experiments, the cells were mounted on a Nikon TMD inverted microscope fitted with an Indo-1 filter set (Nikon Indo-1 filter cube, 485 nm/DM455 nm/405 nm) and illuminated with a mercury lamp. Cells were excited at 350 nm, with dual emission of the field was detected at 410 nm and 480 nm using two photomultiplier tubes, and the ratioed emission was determined in real-time using in-house software. […]"}
{"smiles": "O=c1c(-c2ccc(O)cc2)coc2cc(O)cc(O)c12", "note": "[genistein, 4′, 5,7-trihydroxyisoflavone]", "values": [{"measurement": "peak [Ca2+] on return of extracellular Ca2+ (CCh-activated Ca2+ entry)", "value": "86.7 ± 8.7", "unit": "nM"}]}
